From publication PMC6984391, “Anion carriers as potential treatments for cystic fibrosis: transport in cystic fibrosis cells, and additivity to channel-targeting drugs” (Chemical Science, 2019)

Test system: YFP-FRT cells
Test: YFP fluorescence plate reader assay of anion transport in YFP-FRT cells
Assay type: cell-based, Fischer rat
Conditions: for Corrected absolute initial slope |dF/dT|: transporter 50 μM, DMSO 0.5% v/v, DMSO-only subtracted, I^– 100 mM; for anion transport activity in YFP-FRT cells (in words): 50 μM
Experimental: We treated YFP-FRT cells with anionophores (final concentration, 1–50 μM) or the vehicle DMSO (0.1–0.5% v/v) by direct addition to the phosphate-buffered saline (PBS) bathing the cells. After incubating YFP-FRT cells with anionophores for 10 minutes at 37 °C, we evaluated anion transport activity by adding I^– (100 mM), using a PBS iodide solution with Cl^– replaced by I^–, and following cell fluorescence for 14 s. FRT cells are relatively impermeable to anions because they lack key ion channels found in epithelial cells, including CFTR.[33] Thus, in the absence of anionophore, iodide cannot enter YFP-FRT cells and no quenching of fluorescence occurs. By contrast, in the presence of an anionophore, iodide influx occurs leading to fluorescence quenching.[29]
To quantify anion transport by different anionophores, we fitted first order exponential functions to the iodide-induced fluorescence decay to measure the initial slope, averaging values over multiple experiments. Fig. 2b and Table 1 summarise the data. Consistent with our previous results,[29] we observed a wide range of anion transport activity. […] We therefore selected for further study 11, 12, 15 and 19.
FRT cells stably expressing the halide sensor YFP-H148Q/I152L6 were generous gifts of AS Verkman (University of California, San Francisco), while CFBE41o- cells7 stably expressing YFP (YFP-CFBE cells) were a generous gift of LJV Galietta (Telethon Institute for […]
Genetics and Medicine). […]
U ml-1 penicillin and […] streptomycin. All cells were incubated at 37 °C in a humidified atmosphere with 5% CO2. […]
Fluorescence plate reader assay […]
quenching of YFP fluorescence at 37 °C using a microplate reader following the method of Galietta et al..9 The microplate reader (model: FLUORstar Omega; BMG LABTECH Ltd., Aylesbury, UK) was equipped with a syringe pump and excitation (500 ± 10 nm) and emission (535 ± 15 nm) filters (Chroma Technology GmbH, Olching, Germany). After washing cells twice with PBS (composition (mM): 137 NaCl, 2.7 KCl, 8.1 Na2HPO4, 1.5 KH2PO4, 1 CaCl2 and 0.5 MgCl2, pH 7.40), cells were incubated with test anionophores (1 – 50 µM) or the vehicle (DMSO [0.1 – 0.5% v v-1]) in 40 µl of PBS for 10 – 120 minutes according to the experimental design. Other compounds, including forskolin, ivacaftor and channel inhibitors were added to […]
the PBS bathing cells 10 minutes prior to PBS iodide addition, whereas UTP was added to cells with the PBS iodide solution. Fluorescence was measured for 14 seconds; 2 seconds before and 12 seconds after injection of 110 µl PBS iodide solution (137 mM Cl- replaced by I-) into each well (to obtain a final concentration of I- of 100 mM).
We expressed cell fluorescence values (F) relative to the fluorescence value immediately before I- injection (F0), excluding the initial decrease, which likely represents the quenching of extracellular YFP released from cells and signal reduction accompanying the increase in solution volume bathing cells. To quantify anion transport by test anionophores, we determined the initial slope of the fluorescence decay following I - addition by fitting first order exponential functions to the last 12 seconds of each fluorescence recording. In each experim ent, n values represent the mean of two replicates and all treatments were tested at least three times using different microplates. […]
FRT cells was selected and the cells were perfused with (i) PBS for 5 minutes then (ii) PBS containing I- (10 mM) (made by preparing PBS with 127 mM NaCl to maintain osmolarity) for 5 minutes and finally (iii) PBS for 30 minutes to remove thoroughly I- from the perfusion chamber. YFP-FRT cells were repeatedly treated with I- (10 mM) and then washed with PBS […]
During all interventions, the rate of solution perfusion was 8 – 10 ml min-1; temperature was 37 °C and except for the first

Structure (SMILES)	Corrected absolute initial slope |dF/dT|	anion transport activity in YFP-FRT cells (in words)
FC(F)(F)c1ccc(NC(=S)NCCN(CCNC(=S)Nc2ccc(C(F)(F)F)cc2)CCNC(=S)Nc2ccc(C(F)(F)F)cc2)cc1 [Compound 18]	1.1 ×10^–3 s^–1	
FC(F)(F)c1cc(NC(=S)NCCN(CCNC(=S)Nc2cc(C(F)(F)F)cc(C(F)(F)F)c2)CCNC(=S)Nc2cc(C(F)(F)F)cc(C(F)(F)F)c2)cc(C(F)(F)F)c1 [Compound 19]	12.2 ×10^–3 s^–1	notable decays in fluorescence
CCOC(=O)[C@]12CC[C@@H](NC(=S)Nc3cc(C(F)(F)F)cc(C(F)(F)F)c3)C[C@@H]1C[C@@H](NC(=S)Nc1cc(C(F)(F)F)cc(C(F)(F)F)c1)CC2 [Compound 15]	22.6 ×10^–3 s^–1	notable decays in fluorescence
COCCOCCOC(=O)[C@]12CC[C@@H](NC(=O)Nc3cc(C(F)(F)F)cc(C(F)(F)F)c3)C[C@@H]1C[C@@H](NC(=O)Nc1cc(C(F)(F)F)cc(C(F)(F)F)c1)CC2 [Compound 10]	0.7 ×10^–3 s^–1	
COCCOCCOC(=O)[C@]12CC[C@@H](NC(=O)Nc3ccc(C(F)(F)F)cc3)C[C@@H]1C[C@@H](NC(=O)Nc1ccc(C(F)(F)F)cc1)CC2 [Compound 9]	1.1 ×10^–3 s^–1	
CCOC(=O)[C@]12CC[C@@H](NC(=S)Nc3ccc([N+](=O)[O-])cc3)C[C@@H]1C[C@@H](NC(=S)Nc1ccc([N+](=O)[O-])cc1)CC2 [Compound 12]	17.2 ×10^–3 s^–1	notable decays in fluorescence
CCCCCCCCOC(=O)[C@]12CC[C@@H](NC(=S)Nc3ccc([N+](=O)[O-])cc3)C[C@@H]1C[C@@H](NC(=S)Nc1ccc([N+](=O)[O-])cc1)CC2 [Compound 13]	3.3 ×10^–3 s^–1	intermediate levels
